Like-named read-outs stand apart in the source and are kept apart here.
Assays:
[1] = system: spasmodic seizures caused by pentetrazole; experiment: antipentetrazole test (protection from pentetrazole-induced seizures); assay type: in vivo, female rats; details: Rattus norvegicus, po, read-out: ED50 (dosage which protects 50% of the experimental animals from the spasmodic seizures caused by pentetrazole)
Experimental: As mentioned earlier, the compounds of formula I have valuable pharmacological properties.
(§1) In this animal test, the compound under investigation is adminstered orally or intravenously to female rats and 30 minutes later there are administered intraperitioneally 120 mg/kg of pentetrazole, which causes emprosthotonus and tonic stretchings of the fore and/or hind limbs in unprotected animals 1-4 minutes after the injection. Ten (10) experimental animals are used per dosage of test substance. After counting the protected experimental animals, the ED50 is determined according to the […]. The ED50 is that dosage which protects 50% of the experimental animals from the spasmodic seizures caused by pentetrazole. The results which have been obtained with representative members of the class of compound defined by formula I in the experiment described previously are compiled in the following Table. Moreover, the Table contains data concerning the acute toxicity (LD50) of some of the compounds of formula I in mg/kg in the case of single oral administration to mice.

[2] = acute toxicity, single oral administration to mice; details: mouse, in vivo, p.o.
Experimental: as §1

[3] = female rats, compound given 30 minutes before 120 mg/kg pentetrazole intraperitoneally, 10 animals per dosage

Structure (SMILES) | ED50 [1] [mg/kg] | LD50 [2] [mg/kg] | ED50 [1, 3] [mg/kg]
CC1CN(C(=O)c2cc(-c3ccccc3)c(=O)n3c2-c2cc(Cl)ccc2CC3)CC(C)O1 (centres unmarked) [D, 4-[(6,7-Dihydro-4-oxo-3-phenyl-10-chloro-4H-benzo[a]quinolizin-1-yl)carbonyl]-2,6-dimethylmorpholine] | 1.2 | > 5000 | 
CO[C@H]1CCN(C(=O)c2cc(-c3ccccc3)c(=O)n3ccc4ccsc4c23)C1 [S, (S)-3-methoxy-1-[(7-oxo-8-phenyl-7H-thieno[2,3-a]-quinolizin-10-yl)carbonyl]pyrrolidine] | 0.87 | 5000 | 
O=C(c1cc(-c2ccccc2)c(=O)n2ccc3ccc(Cl)cc3c12)N1CCC[C@@H]1CO [W, (R)-1-[(10-Chloro-4-oxo-3-phenyl-4H-benzo[a]quinolizin-1-yl)carbonyl]-2-pyrrolidinemethanol] | 0.51 | > 3000 | 
COCCNC(=O)c1cc(-c2ccccc2)c(=O)n2c1-c1cc(Cl)ccc1CC2 [Compound A, 10-Chloro-6,7-dihydro-N-(2-methoxyethyl)-4-oxo-3-phenyl-4H-benzo[a]quinolizine-1-carboxamide] | 2.6 | > 5000 | 
COC[C@@H]1CCCN1C(=O)c1cc(-c2ccccc2)c(=O)n2ccc3ccsc3c12 [F, (S)-2-methoxymethyl-1-[(7-oxo-8-phenyl-7H-thieno[2,3-a]quinolizin-10-yl)carbonyl]pyrrolidine] | 2.8 | 5000 | 
O=C(c1cc(-c2ccccc2)c(=O)n2ccc3ccsc3c12)N1CCC[C@H]1CO [E, (S)-1-[(7-oxo-8-phenyl-7H-thieno[2,3-a]quinolizin-10-yl)carbonyl]-2-pyrrolidinemethanol] | 3.5 | 625 | 
COCCN(C)C(=O)c1cc(-c2ccccc2)c(=O)n2ccc3ccsc3c12 [N, N-(2-Methoxyethyl)-N-methyl-7-oxo-8-phenyl-7H-thieno[2,3-a]quinolizine-10-carboxamide] | 0.97 | 625 | 
COC1CCN(C(=O)c2cc(-c3ccccc3)c(=O)n3ccc4ccc(Cl)cc4c23)C1 (centres unmarked) [G, 1-[(10-chloro-4-oxo-3-phenyl-4H-benzo[a]quinolizin-1-yl)carbonyl]-3-methoxypyrrolidine] | 0.12 | 2500 | 
COC1CCN(C(=O)c2cc(-c3ccccc3)c(=O)n3c2-c2cc(Cl)ccc2CC3)C1 (centres unmarked) [P, 1-[(10-Chloro-6,7-dihydro-4-oxo-3-phenyl-4H-benzo[a]quinolizin-1-yl)carbonyl]-3-methoxypyrrolidine] | 0.31 | > 5000 | 
CCN(CCOC)C(=O)c1cc(-c2ccccc2)c(=O)n2ccc3ccsc3c12 [M, N-ethyl-N-(2-methoxyethyl)-7-oxo-8-phenyl-7H-thieno[2,3-a]quinolizine-10-carboxamide] | 5 | 5000 | 
COC[C@@H]1CCCN1C(=O)c1cc(-c2ccccc2)c(=O)n2c1-c1cc(Cl)ccc1CC2 [T, (S)-1-[(10-Chloro-6,7-dihydro-4-oxo-3-phenyl-4H-benzo[a]quinolizin-1-yl)carbonyl]-2-(methoxymethyl)pyrrolidine] | 3.8 | > 5000 | 
COC[C@H]1CCCN1C(=O)c1cc(-c2ccccc2)c(=O)n2ccc3ccsc3c12 [O, (R)-2-(methoxymethyl)-1-[(7-oxo-8-phenyl-7H-thieno[2,3-a]quinolizin-10-yl)carbonyl]pyrrolidine] | 0.49 | 5000 | 
C[C@@H]1CN(C(=O)c2cc(-c3ccccc3)c(=O)n3c2-c2sccc2CC3)C[C@H](C)O1 [I, cis-4-[(4,5-dihydro-7-oxo-8-phenyl-7H-thieno[2,3-a]-quinolizin-10-yl)carbonyl]-2,6-dimethylmorpholine] |  | > 5000 | 5.9
COC1CCN(C(=O)c2cc(-c3ccccc3)c(=O)n3c2-c2sccc2CC3)C1 (centres unmarked) [U, 1-[(4,5-Dihydro-7-oxo-8-phenyl-7H-thieno[2,3-a]quinolizin-10-yl)carbonyl]-3-methoxypyrrolidine] | 2.7 | > 5000 | 
CO[C@@H]1CCN(C(=O)c2cc(-c3ccccc3)c(=O)n3ccc4ccsc4c23)C1 [R, (R)-3-methoxy-1-[(7-oxo-8-phenyl-7H-thieno[2,3-a]-quinolizin-10-yl)carbonyl]pyrrolidine] | 0.17 | 1250 | 
COC1CCN(C(=O)c2cc(-c3ccccc3)c(=O)n3ccc4ccc(Cl)cc4c23)CC1 [L, 1-[(10-Chloro-3-phenyl-4-oxo-4H-benzo[a]quinolizin-1-yl)carbonyl]-4-methoxypiperidine] | 0.22 | > 5000 | 
O=C(c1cc(-c2ccccc2)c(=O)n2c1-c1cc(Cl)ccc1CC2)N1CCC(O)CC1 [B, 1-[(10-Chloro-6,7-dihydro-4-oxo-3-phenyl-4H-benzo[a]quinolizin-1-yl)carbonyl]-4-piperidinol] |  | > 5000 | 5.4
COC1CCN(C(=O)c2cc(-c3ccccc3)c(=O)n3c2-c2cc(Cl)ccc2CC3)CC1 [K] | 0.56 | > 5000 | 
O=C(OCc1cc(-c2ccccc2)c(=O)n2c1-c1sccc1CC2)N1CCOCC1 [C, (4,5-Dihydro-7-oxo-8-phenyl-7H-thieno[2,3-a]quinolizin-10-yl)methyl 4-morpholinecarboxylate] | 15.9 |  | 
CCOC1CCN(C(=O)c2cc(-c3ccccc3)c(=O)n3c2-c2cc(Cl)ccc2CC3)C1 (centres unmarked) [Q, 1-[(10-Chloro-6,7-dihydro-4-oxo-3-phenyl-4H-benzo[a]quinolizin-1-yl)carbonyl]-3-ethoxypyrrolidine] | 3.1 | > 5000 | 
COC[C@H]1CCCN1C(=O)c1cc(-c2ccccc2)c(=O)n2ccc3ccc(Cl)cc3c12 [Y, (R)-1-[(10-Chloro-4-oxo-3-phenyl-4H-benzo[a]quinolizin-1-yl)carbonyl]-2-(methoxymethyl)pyrrolidine] | 0.41 | 5000 | 
COC[C@@H]1CCCN1C(=O)c1cc(-c2ccccc2)c(=O)n2ccc3ccc(Cl)cc3c12 [X, (S)-1-[(10-Chloro-4-oxo-3-phenyl-4H-benzo[a]quinolizin-1-yl)carbonyl]-2-(methoxymethyl)pyrrolidine] | 1.1 | 5000 | 
COC1CN(C(=O)c2cc(-c3ccccc3)c(=O)n3ccc4ccsc4c23)C1 [V, 3-Methoxy-1-[(7-oxo-8-phenyl-7H-thieno[2,3-a]quinolizin-10-yl)carbonyl]azetidine] | 0.13 | > 5000 | 
O=C(c1cc(-c2ccccc2)c(=O)n2ccc3ccc(Cl)cc3c12)N1CCC[C@H]1CO [H, (S)-1-[(10-chloro-4-oxo-3-phenyl-4H-benzo[a]quinolizin-1-yl)carbonyl]-2-pyrrolidinemethanol] | 1.3 | > 3000 | 

Source: US4889848A, “Tricyclic pyridine derivatives” (Hoffmann-La Roche Inc., priority 1988, dated 1989)
